From article PMC4673326, “Design and Synthesis of a Novel Cationic Peptide with Potent and Broad-Spectrum Antimicrobial Activity” (BioMed Research International, 2015)
Ends that are not written are not given here.

Legend:
Assay type in all cases: cell-based
Escherichia coli = system: Escherichia coli
Procedure: (§1) Two Gram-positive bacteria, 3 Gram-negative bacteria, and 2 fungi were selected to measure antibacterial activity of peptides. The strains were provided by Department of Microbiology in China Pharmaceutical University and were stored at 4°C until use.
(§2) Antimicrobial activity was evaluated using an inhibition zone assay or determination of the minimal inhibitory concentration (MIC) value with minor modifications as described previously: • Inhibition zone assay: agar plates were seeded with strains (about 10^6 cells in 10 mL of 1% agar medium). Wells (3 mm in diameter) were punched out and a 5 μL peptide sample dissolved in water was loaded. Controls were loaded with water. After incubation at 37°C overnight, the diameter of the inhibition zone was determined. • Determination of the MIC value: MICs were determined using a standard serial dilution method in appropriate medium for each bacterial strain listed in Table 3. In brief, 1 mL of different peptides dilution solutions was poured into a series of sterile plates, and then 9 mL appropriate medium that was preincubated at 37°C was added into a plate and was mixed gently to reach various concentrations (512, 256, 128, 64, 32, 16, 8, 4, 2, 1, and 0.5 μg/mL). Bacteria were added to the 96-well plates. The amount of bacteria for each spot is approximately 10^4 to 10^5 CFU/mL. After incubating the inoculated plate at 37°C for 16 to 18 hours, MICs were determined as the lowest peptide concentration that inhibited bacterial growth. All MICs were determined in two independent experiments performed in duplicate.

Aspergillus niger = system: Aspergillus niger
Procedure: as §1, §2

Pseudomonas aeruginosa = system: Pseudomonas aeruginosa
Procedure: as §1, §2

[1] = system: Staphylococcus epidermidis
Procedure: as §1, §2

Staphylococcus aureus = system: Staphylococcus aureus
Procedure: as §1, §2

Klebsiella = test: MIC, serial dilution method; conditions: Klebsiella aeruginosa (so in the source); serial dilution 512-0.5 μg/mL, Luria-Bertani, 37°C, 16 to 18 hours; mean of three independent experiments in duplicate
Procedure: as §1
as §2, with “All MICs were determined in two independent experiments performed in duplicate.” left out

human red blood cells = test: Hemolytic assay; conditions: human RBC in PBS pH 7.4, 37°C, 1 h, absorbance 415 nm
Procedure: Hemolytic activity was determined by the procedure of Yoshida et al. with slight modifications. Fresh human blood (1 mL) was centrifuged at 1000 ×g for 5 min and the precipitates were collected and then washed 3 times with phosphate buffered saline (PBS) (pH 7.4). Precipitates were resuspended in 4-fold volumes of PBS. Then, 995 μL of PBS solution containing serial diluted peptides was added to a human erythrocyte solution of 5 μL. The resulting solution was incubated at 37°C for 1 h and was centrifuged at 1000 ×g for 5 min. The supernatant was diluted 5-fold with PBS and was monitored at 415 nm using a UV spectrophotometer. Zero hemolysis (blank) and 100% hemolysis were determined in PBS and 1% Triton X-100, respectively.

| Substance | MIC (Escherichia coli) [µg/mL] | MIC (Aspergillus niger) [µg/mL] | MIC (Pseudomonas aeruginosa) [µg/mL] | MIC [1] [µg/mL] | MIC (Staphylococcus aureus) [µg/mL] | MIC (Klebsiella) [µg/mL] | hemolysis (human red blood cells; 100% = 1% Triton X-100, tested at 10, 40, 160 and 640 μg/mL, value holds even at 640 μg/mL) [%] | concentration causing the lysis of whole erythrocytes (human red blood cells) |
| --- | --- | --- | --- | --- | --- | --- | --- | --- |
| RRWWRFPRFFRRFFR-NH2 [RFFR-15] | 256 | >512 | >512 | 128 | 64 | >512 |  |  |
| KWKYPKLLKKLLK [KW-13] | 64 | 256 | 128 | 4 | 16 | 128 | < 1 |  |
| KWKKPKLLKKLLK [KWKK-13] | 256 | >512 | >512 | >512 | >512 | >512 |  |  |
| Melittin [reference compound] |  |  |  |  |  |  |  | below 40 μg/mL |
| KFRWGKPV-NH2 [KPV-8] | >512 | >512 | >512 | >512 | >512 | >512 |  |  |
| RRWWRFPPPRFPPRFPPP-NH2 [RFPP-18] | 128 | >512 | 256 | 512 | >512 | >512 |  |  |
| KWKLFKKIWGKPV-NH2 [KPV-13] | 512 | >512 | >512 | 32 | >512 | >512 |  |  |
